Experimental data as given in patent publication US9714243B2, “4-pyridinonetriazine derivatives as HIV integrase inhibitors” (Merck Sharp & Dohme Corp., priority 2012, dated 2017).
Read-outs that look alike come from different tables or passages of the source.

Tested on: HIV-1 (NL4-3 strain)
Assay: Assay for inhibition of HIV replication (ViKinG; infected MT4-GFP cells)
Assay type: cell-based
Description: Assay for inhibition of HIV replication
MT4-GFP cells (250,000 cells/ml) were bulk-infected with HIV-1 (NL4-3 strain) at low multiplicity of infection (MOI) in RPMI+10% FBS for 24 hours. […] Test compounds were serial-diluted in DMSO on ECHO. The infected MT4-GFP cells were added to a 384-well poly-D-lysine coated black plate with clear bottom in which the diluted test compounds were placed. The cells were seeded at 8,000 cells per well and the final DMSO concentration was 0.4%. The infected cells (Green GFP cells) were quantified at both 24 and 48 hours post incubation using Acumen eX3. Viral reproductive ratio (R0) was determined using the number of infected cells at 48 hours divided by the number of infected cells at 24 hours. Percent viral growth inhibition was calculated by [1−(R−Rtripledrug)/(RDMSO−Rtripledrug)]*100. Compound potency IP or IC50 was determined by a 4-parameter dose response curve analysis.

[1] = MT4-GFP cells infected with HIV-1 NL4-3, 0% normal human serum (NHS), read-out: ViKinG IP (nM) with 0% NHS
[2] = MT4-GFP cells infected with HIV-1 NL4-3, 10% normal human serum (NHS), read-out: ViKinG IP (nM) with 10% NHS
[3] = Human immunodeficiency virus 1, NL43, MT4-GFP cells infected with HIV-1 NL4-3, 10% normal human serum (NHS), read-out: ViKinG IP (nM) with 10% NHS
[4] = Human immunodeficiency virus 1, NL43, MT4-GFP cells infected with HIV-1 NL4-3, 100% normal human serum (NHS), read-out: ViKinG IP (nM) with 100% NHS
[5] = MT4-GFP cells infected with HIV-1 NL4-3, 100% normal human serum (NHS), read-out: ViKinG IP (nM) with 100% NHS
[6] = Human immunodeficiency virus 1, NL43, MT4-GFP cells infected with HIV-1 NL4-3, 0% normal human serum (NHS), read-out: ViKinG IP (nM) with 0% NHS

| Structure (SMILES) | IC50 [1] [nM] | IC50 [2] [nM] | IC50 [3] [nM] | IC50 [4] [nM] | IC50 [6] [nM] | other results |
| --- | --- | --- | --- | --- | --- | --- |
| CN1C(=O)c2c(O)c(=O)c(-c3nnc(Cc4ccc(F)cc4F)s3)cn2N(C)C12CCC(C)(C(=O)O)CC2 (stereo not drawn) [Compound 83] | 151 | 755 |  |  |  |  |
| CN(C)CCNC(=O)C1CCC2(CC1)N(C)C(=O)c1c(O)c(=O)c(-c3nnc(Cc4ccc(F)cc4F)s3)cn1N2C (stereo not drawn) [Compound 126] | 24.3 | 82.2 |  |  |  |  |
| CCN1C(=O)c2c(O)c(=O)c(-c3nnc(Cc4ccc(F)cc4F)s3)cn2N(C)C12CC[C@@H](C(=O)OC)[C@H](C)C2 (stereo partly drawn) [Compound 33] |  | 29 |  |  |  |  |
| CCN1C(=O)c2c(O)c(=O)c(-c3nnc(Cc4ccc(F)cc4F)s3)cn2N(C)C12CCC1(CCC(=O)N1)CC2 (stereo not drawn) [Compound 23] |  | 466 |  |  |  |  |
| CCN1C(=O)c2c(O)c(=O)c(-c3nnc(Cc4ccc(F)cc4F)s3)cn2N(C)C12CCC(NS(C)(=O)=O)CC2 (stereo not drawn) [Compound 24] |  |  | 185 | 1040 |  |  |
| CN1C(=O)c2c(O)c(=O)c(-c3nnc(Cc4ccc(F)cc4F)s3)cn2N(C)C12CCC(C(=O)NCC1CCS(=O)(=O)C1)CC2 (stereo not drawn) [Compound 137] | 108 |  | 707 |  |  |  |
| CCN1C(=O)c2c(O)c(=O)c(-c3nnc(Cc4ccc(F)cc4F)s3)cn2N(C)C12CCC(O)CC2 (stereo not drawn) [Compound 51] | 8.5 |  |  | 204 |  |  |
| CCN1C(=O)c2c(O)c(=O)c(-c3nnc(Cc4ccc(F)cc4F)s3)cn2N(C)C12CCC(OC(C)C)CC2 (stereo not drawn) [Compound 63] | 27.6 |  |  |  |  | IC50 [5]: 391 nM |
| CN(CC(F)(F)F)C(=O)C1CCC2(CC1)N(C)C(=O)c1c(O)c(=O)c(-c3nnc(Cc4ccc(F)cc4F)s3)cn1N2C (stereo not drawn) [Compound 108] |  |  | 16.1 | 478 | 24 |  |
| CN1C(=O)c2c(O)c(=O)c(-c3nnc(Cc4ccc(F)cc4F)s3)cn2N(C)C12C[C@H]1CC(O)C[C@H]1C2 (stereo partly drawn) [Compound 77] |  |  | 58 |  | 12.8 |  |
| CCN1C(=O)c2c(O)c(=O)c(-c3nnc(Cc4ccc(F)cc4F)s3)cn2N(C)C1(C)C [Compound 15] |  |  | 57.9 | 971 | 3.49 |  |
| CN1C(=O)c2c(O)c(=O)c(C(=O)NCc3ccc(F)cc3F)cn2N(C)[C@@]12CC[C@@H]1C[C@@H]12 [Compound 187] |  |  |  | 502 | 3.64 |  |
| CN(C)C(=O)C1CCC2(CC1)N(C)C(=O)c1c(O)c(=O)c(-c3nnc(Cc4ccc(F)cc4)s3)cn1N2C (stereo not drawn) [Compound 146] |  | 9.02 |  | 188 |  |  |
| COCCNC(=O)C1CCC2(CC1)N(C)C(=O)c1c(O)c(=O)c(-c3nnc(Cc4ccc(F)cc4F)s3)cn1N2C (stereo not drawn) [Compound 121] | 102 | 240 |  |  |  |  |
| CN1C(=O)c2c(O)c(=O)c(-c3nnc(Cc4ccc(F)cc4F)s3)cn2N(C)C12CCC(CO)CC2 (stereo not drawn) [Compound 74] |  |  | 23.6 |  | 6.84 |  |
| COCCN1C(=O)c2c(O)c(=O)c(C(=O)NCc3ccc(F)cc3F)cn2CC12CC2 [Compound 180] |  |  |  | 611 | 1.8 |  |
| CN1C(=O)c2c(O)c(=O)c(-c3nnc(Cc4ccc(F)cc4F)s3)cn2N(C)C12CCC(C(=O)N1CCCC1)CC2 (stereo not drawn) [Compound 116] | 3.94 | 15.2 |  |  |  |  |
| CCN1C(=O)c2c(O)c(=O)c(-c3nnc(Cc4ccc(F)cc4)s3)cn2N(C)C12CCC(C(=O)N(C)C)CC2 (stereo not drawn) [Compound 93] |  | 255 |  |  |  |  |
| CCN1C(=O)c2c(O)c(=O)c(-c3nnc(Cc4ccc(F)cc4F)s3)cn2N(C)C12CC[C@@H](C(=O)OC)[C@H](C)C2 (stereo partly drawn) [Compound 32] |  |  | 21.1 |  |  |  |
| CCN1C(=O)c2c(O)c(=O)c(-c3nnc(Cc4ccc(F)cc4)s3)cn2N(C)C1C1CC1 (racemic) [Compound 217] |  |  | 66 | 1020 |  |  |
| CN1C2C(O)CCCN2C(=O)c2c(O)c(=O)c(-c3nnc(Cc4ccc(F)cc4F)s3)cn21 (stereo not drawn) [Compound 164] | 3.48 |  |  |  |  | IC50 [5]: 82.2 nM |
| COCCN1C(=O)c2c(O)c(=O)c(C(=O)NCc3ccc(F)cc3F)cn2[C@@H](C)C12CC2 [Compound 183] |  |  |  | 188 | 3.17 |  |
| CN1C(=O)c2c(O)c(=O)c(-c3nnc(Cc4ccc(F)cc4F)s3)cn2N(C)C12CC[C@@H](C(=O)NC1CC1)C(C)(C)C2 (stereo partly drawn) [Compound 143] | 7.48 |  |  |  |  | IC50 [5]: 817 nM |
| CN(CCNC(=O)C1CCC2(CC1)N(C)C(=O)c1c(O)c(=O)c(-c3nnc(Cc4ccc(F)cc4F)s3)cn1N2C)C(=O)OC(C)(C)C (stereo not drawn) [Compound 140] | 61.6 | 28.2 |  |  |  |  |
| CC(C)[C@]1(C(=O)NC2CC2)CCC2(C1)N(C)C(=O)c1c(O)c(=O)c(-c3nnc(Cc4ccc(F)cc4F)s3)cn1N2C (stereo partly drawn) [Compound 144] |  |  |  | 205 | 10.7 |  |
